{"source": "PubChem BioAssay AID2060361", "about": "(Molecular Pharmacology Branch, DTP, NCI, 2025);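 note: spheroids exposed to drugs for seven days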;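 for viability, T/C: 100% = DMSO vehicle control wells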", "system": "463943-066-T-J2-PDC tumor spheroids with HUVEC/MSC, viability", "assay": "Anticancer human tumor 463943-066-T-J2-PDC patient-derived colon adenocarcinoma cell line growth inhibition [TAK]", "settings": "for IC50: curve of first compound; for viability, T/C: stronger effect = lower value", "method_in_brief": "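Drug combinations, each paired with TAK-243 or ipatasertib, were tested on multi-cell spheroids of 60% malignant cells, 25% HUVEC and 15% hMSC. Top concentrations were at or near the clinical Cmax (10 microM if undetermined), decreasing by half-log; viability is given as % test/control.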"}
{"smiles": "CC(C)CC(NC(=O)CNC(=O)c1cc(Cl)ccc1Cl)B1OC(=O)CC(CC(=O)O)(C(=O)O)O1", "note": "(stereo not given) + CC(C)NCC(C(=O)N1CCN(c2ncnc3c2C(C)CC3O)CC1)c1ccc(Cl)cc1", "values": [{"measurement": "IC50", "setting": "second compound 0.3 µM", "result": "> 100", "unit": "nM"}, {"measurement": "IC50", "setting": "second compound 0.949 µM", "result": "> 100", "unit": "nM"}, {"measurement": "IC50", "setting": "second compound 3 µM", "result": "> 100", "unit": "nM"}, {"measurement": "IC50", "setting": "second compound 9.49 µM", "result": "> 100", "unit": "nM"}, {"measurement": "IC50", "setting": "second compound 30 µM", "result": "> 100", "unit": "nM"}, {"measurement": "viability, T/C", "setting": "second compound 0.3 µM, first compound 0.000316 µM", "result": 117, "unit": "%"}, {"measurement": "viability, T/C", "setting": "second compound 0.3 µM, first compound 0.001 µM", "result": 107, "unit": "%"}, {"measurement": "viability, T/C", "setting": "second compound 0.3 µM, first compound 0.00316 µM", "result": 106, "unit": "%"}, {"measurement": "viability, T/C", "setting": "second compound 0.3 µM, first compound 0.01 µM", "result": 101, "unit": "%"}, {"measurement": "viability, T/C", "setting": "second compound 0.3 µM, first compound 0.0316 µM", "result": 88.8, "unit": "%"}, {"measurement": "viability, T/C", "setting": "second compound 0.3 µM, first compound 0.1 µM", "result": 80.5, "unit": "%"}, {"measurement": "viability, T/C", "setting": "second compound 0.949 µM, first compound 0.000316 µM", "result": 98.3, "unit": "%"}, {"measurement": "viability, T/C", "setting": "second compound 0.949 µM, first compound 0.001 µM", "result": 102, "unit": "%"}, {"measurement": "viability, T/C", "setting": "second compound 0.949 µM, first compound 0.00316 µM", "result": 99, "unit": "%"}, {"measurement": "viability, T/C", "setting": "second compound 0.949 µM, first compound 0.01 µM", "result": 105, "unit": "%"}, {"measurement": "viability, T/C", "setting": "second compound 0.949 µM, first compound 0.0316 µM", "result": 86.9, "unit": "%"}, {"measurement": "viability, T/C", "setting": "second compound 0.949 µM, first compound 0.1 µM", "result": 72.6, "unit": "%"}, {"measurement": "viability, T/C", "setting": "second compound 3 µM, first compound 0.000316 µM", "result": 116, "unit": "%"}, {"measurement": "viability, T/C", "setting": "second compound 3 µM, first compound 0.001 µM", "result": 98.9, "unit": "%"}, {"measurement": "viability, T/C", "setting": "second compound 3 µM, first compound 0.00316 µM", "result": 95.4, "unit": "%"}, {"measurement": "viability, T/C", "setting": "second compound 3 µM, first compound 0.01 µM", "result": 98.5, "unit": "%"}, {"measurement": "viability, T/C", "setting": "second compound 3 µM, first compound 0.0316 µM", "result": 83.5, "unit": "%"}, {"measurement": "viability, T/C", "setting": "second compound 3 µM, first compound 0.1 µM", "result": 80.7, "unit": "%"}, {"measurement": "viability, T/C", "setting": "second compound 9.49 µM, first compound 0.000316 µM", "result": 91.4, "unit": "%"}, {"measurement": "viability, T/C", "setting": "second compound 9.49 µM, first compound 0.001 µM", "result": 123, "unit": "%"}, {"measurement": "viability, T/C", "setting": "second compound 9.49 µM, first compound 0.00316 µM", "result": 97.2, "unit": "%"}, {"measurement": "viability, T/C", "setting": "second compound 9.49 µM, first compound 0.01 µM", "result": 95.2, "unit": "%"}, {"measurement": "viability, T/C", "setting": "second compound 9.49 µM, first compound 0.0316 µM", "result": 78.1, "unit": "%"}, {"measurement": "viability, T/C", "setting": "second compound 9.49 µM, first compound 0.1 µM", "result": 85.7, "unit": "%"}, {"measurement": "viability, T/C", "setting": "second compound 30 µM, first compound 0.000316 µM", "result": 93.8, "unit": "%"}, {"measurement": "viability, T/C", "setting": "second compound 30 µM, first compound 0.001 µM", "result": 99.1, "unit": "%"}, {"measurement": "viability, T/C", "setting": "second compound 30 µM, first compound 0.00316 µM", "result": 90.6, "unit": "%"}, {"measurement": "viability, T/C", "setting": "second compound 30 µM, first compound 0.01 µM", "result": 90.4, "unit": "%"}, {"measurement": "viability, T/C", "setting": "second compound 30 µM, first compound 0.0316 µM", "result": 81.3, "unit": "%"}, {"measurement": "viability, T/C", "setting": "second compound 30 µM, first compound 0.1 µM", "result": 71.7, "unit": "%"}]}
